Patent US11447503B2, “Pyridine carbamates and their use as GLUN2B receptor modulators” (JANSSEN PHARMACEUTICA NV, priority 2019, dated 2022)

biological target: human GluN1/GluN2B NMDA receptors (Homo sapiens, UniProt Q05586+Q13224); assay: Cell-based calcium flux (FLIPR) assay on cloned human GluN1/GluN2B ion channels expressed in mammalian cells; conditions: standard assay; glutamate ~EC40, 10 μM glycine; stable Tet-On cell line
Description: 5.3. Biological Assays: Effect of Compounds of Formula (I) on Cloned Human GluN1/GluN2B Ion Channels Expressed in Mammalian Cells
NMDA receptors are ion channels that are highly permeable to Ca^2+ ions, rendering it possible to monitor NMDA receptor function using cell-based calcium flux assay. In this assay, co-agonists glutamate and glycine are added to cells heterologously expressing human GluN1/GluN2B NMDA receptors to initiate cellular Ca^2+ influx. The time course of the changes in intracellular calcium is measured using a fluorescent dye and a FLIPR (Fluorometric Imaging Plate Reader) device.
Twenty four hours before measurements, the expression of the NMDA receptors in the stable cell line is induced with Tet-On inducible system in the presence of a non-selective NMDA receptor blocker. On the day of the experiment, cell culture media is carefully washed and the cells are loaded with Calcium 5 Dye Kit (Molecular Devices) in dye loading buffer containing 137 mM NaCl, 4 mM KCl, 2 mM CaCl2, 0.5 mM MgCl2 (standard assay) or 1.5 mM MgCl2 (HTS assay), 10 mM HEPES and 5 mM D-glucose; pH 7.4. After 1 h incubation at the room temperature, the dye is washed away with the assay buffer (137 mM NaCl (standard assay) or 150 mM (HTS assay), 4 mM KCl (standard assay) or 3 mM (HTS assay), 2 mM CaCl2, 0.01 mM EDTA, 10 mM HEPES and 5 mM D-glucose; pH 7.4) In the FLIPR TETRA reader, various concentrations of the test compounds are added to the cells for 5 min while fluorescence is monitored to detect potential agonist activity. Next, co-agonists, glutamate and glycine are added for another 5 minutes. The concentration of glutamate corresponding to ˜EC40 (standard assay) or EC40 (HTS assay) is used to maximize the assay's signal window and ability to detect NMDA receptor antagonists and negative allosteric modulators. A saturating concentration (10 μM) of glycine is also present in the assay. A non-selective NMDA receptor antagonist, (+)MK-801 is used as a positive control for antagonist activity. The fluorescent signal in the presence of test compounds is quantified and normalized to the signal defined by the appropriate control wells.

Sequence of human GluN1/GluN2B NMDA receptors (Q13224 27-1484, other chains not shown): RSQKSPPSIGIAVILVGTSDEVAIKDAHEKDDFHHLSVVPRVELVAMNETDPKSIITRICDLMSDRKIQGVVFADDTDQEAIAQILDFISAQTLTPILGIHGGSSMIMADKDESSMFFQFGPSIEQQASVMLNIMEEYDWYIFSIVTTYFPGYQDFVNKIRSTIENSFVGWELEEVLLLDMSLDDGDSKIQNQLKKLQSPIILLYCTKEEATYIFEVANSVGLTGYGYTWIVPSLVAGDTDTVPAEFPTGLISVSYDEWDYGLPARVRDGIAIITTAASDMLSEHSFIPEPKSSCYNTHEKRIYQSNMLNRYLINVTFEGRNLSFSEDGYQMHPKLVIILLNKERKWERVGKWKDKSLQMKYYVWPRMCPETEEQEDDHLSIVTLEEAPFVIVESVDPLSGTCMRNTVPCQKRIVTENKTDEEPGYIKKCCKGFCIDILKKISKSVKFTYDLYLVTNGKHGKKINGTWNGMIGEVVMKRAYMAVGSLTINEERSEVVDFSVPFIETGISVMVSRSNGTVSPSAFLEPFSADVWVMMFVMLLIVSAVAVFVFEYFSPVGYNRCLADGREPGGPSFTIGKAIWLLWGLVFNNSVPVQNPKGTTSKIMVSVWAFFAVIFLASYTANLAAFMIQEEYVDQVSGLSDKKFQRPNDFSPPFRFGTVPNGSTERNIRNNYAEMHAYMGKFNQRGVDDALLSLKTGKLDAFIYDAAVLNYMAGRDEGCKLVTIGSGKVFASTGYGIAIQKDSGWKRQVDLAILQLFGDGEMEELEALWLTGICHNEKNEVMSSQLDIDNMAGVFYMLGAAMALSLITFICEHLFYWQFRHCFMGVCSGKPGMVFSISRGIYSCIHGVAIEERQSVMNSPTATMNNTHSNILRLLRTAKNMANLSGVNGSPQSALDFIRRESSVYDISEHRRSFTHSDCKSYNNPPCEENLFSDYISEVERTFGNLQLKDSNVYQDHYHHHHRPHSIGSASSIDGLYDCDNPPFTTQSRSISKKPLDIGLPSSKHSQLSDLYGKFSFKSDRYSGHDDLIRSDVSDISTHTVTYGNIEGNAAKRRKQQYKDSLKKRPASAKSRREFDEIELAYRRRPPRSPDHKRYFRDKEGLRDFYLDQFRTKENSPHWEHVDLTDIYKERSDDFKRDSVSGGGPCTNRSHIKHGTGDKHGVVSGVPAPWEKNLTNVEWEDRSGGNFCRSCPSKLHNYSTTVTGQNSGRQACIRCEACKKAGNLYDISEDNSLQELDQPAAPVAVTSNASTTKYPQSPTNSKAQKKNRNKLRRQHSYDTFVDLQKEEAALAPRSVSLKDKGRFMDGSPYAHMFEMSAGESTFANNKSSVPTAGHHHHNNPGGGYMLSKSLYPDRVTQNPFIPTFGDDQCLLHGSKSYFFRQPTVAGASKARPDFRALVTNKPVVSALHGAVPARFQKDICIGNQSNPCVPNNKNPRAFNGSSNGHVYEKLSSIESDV

Row | SMILES | IC50 [nM]
1 | COc1ncc(-c2cc(F)cc(C)c2F)cc1CN1CCOC1=O [Example 114, 3-[[5-(2,5-Difluoro-3-methyl-phenyl)-2-methoxy-3-pyridyl]methyl] oxazolidin-2-one] | 542
2 | Cc1ncc(-c2ccc(F)c(C(F)(F)F)c2)cc1CN1CCCOC1=O [Example 75, 3-[[5-[4-Fluoro-3-(trifluoromethyl)phenyl]-2-methyl-3-pyridyl]methyl]-1,3-oxazinan-2-one] | 39
3 | O=C1OC(CN2CCOCC2)CN1Cc1cncc(-c2ccc(F)c(C(F)F)c2)c1 (single isomer, unassigned) [Example 40, (R*)-3-[[5-[3-(Difluoromethyl)-4-fluoro-phenyl]-3-pyridyl]methyl]-5-(morpholinomethyl)oxazolidin-2-one] | 205
4 | C[C@@H]1CN(Cc2cc(-c3ccc(F)c(C(F)F)c3)cnc2C(C)(F)F)C(=O)O1 [Example 139, (5R)-3-[[2-(1,1-Difluoroethyl)-5-[3-(difluoromethyl)-4-fluoro-phenyl]-3-pyridyl]methyl]-5-methyl-oxazolidin-2-one] | 134
5 | O=C1OCCCN1Cc1cc(-c2ccc(F)c(OC(F)F)c2)cnc1C(F)F [Example 126, 3-[[5-[3-(Difluoromethoxy)-4-fluoro-phenyl]-2-(difluoromethyl)-3-pyridyl]methyl]-1,3-oxazinan-2-one] | 19
6 | O=C1OCCN1Cc1cncc(-c2ccnc(C(F)(F)F)c2)c1 [Example 51, 3-[[5-[2-(Trifluoromethyl)-4-pyridyl]-3-pyridyl]methyl]oxazoidin-2-one] | 1000
7 | Cc1ncc(-c2ccc(F)c(C(F)F)c2)cc1CN1C[C@@H](C)OC1=O [Example 92, (5R)-3-[[5-[3-(Difluoromethyl)-4-fluoro-phenyl]-2-methyl-3-pyridyl]methyl]-5-methyl-oxazolidin-2-one] | 63
8 | [2H]C([2H])(c1cc(-c2ccc(F)c(C(F)F)c2)cnc1C)N1CCCOC1=O [Example 58, 3-[Dideuterio-[5-[3-(difluoromethyl)-4-fluoro-phenyl]-2-methyl-3-pyridyl]methyl]-1,3-oxazinan-2-one] | 25
9 | COc1ncc(-c2ccc(F)c(C)c2F)cc1CN1CCOC1=O [Example 103, 3-[[5-(2,4-Difluoro-3-methyl-phenyl)-2-methoxy-3-pyridyl]methyl] oxazolidin-2-one] | 46
10 | O=C1OCCN1Cc1cncc(-c2ccc(Cl)c(OC(F)F)c2)c1 [Example 47, 3-[[5-[4-Chloro-3-(difluoromethoxy)phenyl]-3-pyridyl]methyl]oxazolidin-2-one] | 11
11 | Cc1ncc(-c2ccc(C(F)(F)F)s2)cc1CN1CCOC1=O [Example 99, 3-[[2-Methyl-5-[5-(trifluoromethyl)-2-thienyl]-3-pyridyl]methyl]oxazolidin-2-one] | 16
12 | [2H]C([2H])(c1cc(-c2ccc(F)c(C)c2)cnc1C)N1CCCOC1=O [Example 57, 3-[Dideuterio-[5-(4-fluoro-3-methyl-phenyl)-2-methyl-3-pyridyl]methyl]-1,3-oxazinan-2-one] | 23
13 | O=C1OCCN1Cc1cc(-c2ccc(F)c(C(F)F)c2)cnc1C(F)F [Example 124, 3-[[2-(Difluoromethyl)-5-[3-(difluoromethyl)-4-fluoro-phenyl]-3-pyridyl]methyl]oxazolidin-2-one] | 56
14 | COc1ncc(-c2ccc(F)c(C(F)F)c2)cc1CN1CCOC1=O [Example 122, 3-[[5-[3-(Difluoromethyl)-4-fluoro-phenyl]-2-methoxy-3-pyridyl]methyl]oxazolidin-2-one] | 15
15 | C[C@@H]1COC(=O)N1Cc1cc(-c2ccc(F)c(OC(F)F)c2)cnc1C(C)(F)F [Example 144, (4R)-3-[[2-(1,1-Difluoroethyl)-5-[3-(difluoromethoxy)-4-fluoro-phenyl]-3-pyridyl]methyl]-4-methyl-oxazolidin-2-one] | 157
16 | O=C1OCCN1Cc1cc(-c2ccc(Cl)c(OC(F)F)c2)cnc1C(F)F [Example 130, 3-[[5-[4-Chloro-3-(difluoromethoxy)phenyl]-2-(difluoromethyl)-3-pyridyl]methyl]oxazolidin-2-one] | 30
17 | CC1CN(Cc2cncc(-c3ccc(F)c(C(F)F)c3)c2)C(=O)O1 (racemic) [Example 26, (R/S)-3-[[5-[3-(Difluoromethyl)-4-fluoro-phenyl]-3-pyridyl]methyl]-5-methyl-oxazolidin-2-one] | 28

Row | SMILES | IC50 [nM]
18 | O=C1OC(CN2CCOCC2)CN1Cc1cncc(-c2ccc(F)c(C(F)F)c2)c1 (single isomer, unassigned) [Example 41, (S*)-3-[[5-[3-(Difluoromethyl)-4-fluoro-phenyl]-3-pyridyl]methyl]-5-(morpholinomethyl)oxazolidin-2-one] | 751
19 | COc1ncc(-c2cccc(C(F)(F)F)c2)cc1CN1CCOC1=O [Example 101, 3-[[2-Methoxy-5-[3-(trifluoromethyl)phenyl]-3-pyridyl]methyl]oxazolidin-2-one] | 53
20 | [2H]C([2H])(c1cc(-c2ccc(F)c(OC(F)F)c2)cnc1C)N1CCCOC1=O [Example 56, 3-[Dideuterio-[5-[3-(difluoromethoxy)-4-fluoro-phenyl]-2-methyl-3-pyridyl]methyl]-1,3-oxazinan-2-one] | 9
21 | CC(C)C1CN(Cc2cncc(-c3ccc(F)c(OC(F)F)c3)c2)C(=O)O1 (single isomer, unassigned) [Example 16, (S*)-3-[[5-[3-(Difluoromethoxy)-4-fluoro-phenyl]-3-pyridyl]methyl]-5-isopropyl-oxazolidin-2-one] | 52
22 | Cc1ncc(-c2ccc(F)c(C(F)F)c2)cc1CN1CC2(CCC2)OC1=O [Example 91, 6-[[5-[3-(Difluoromethyl)-4-fluoro-phenyl]-2-methyl-3-pyridyl]methyl]-8-oxa-6-azaspiro[3.4]octan-7-one] | 84
23 | Cc1ncc(-c2cccc(F)c2)cc1CN1CCCOC1=O [Example 69, 3-[[5-(3-Fluorophenyl)-2-methyl-3-pyridyl]methyl]-1,3-oxazinan-2-one] | 3020
24 | COc1ncc(-c2ccc(F)c(C(C)(F)F)c2)cc1CN1CCOC1=O [Example 110, 3-[[5-[3-(1,1-Difluoroethyl)-4-fluoro-phenyl]-2-methoxy-3-pyridyl]methyl]oxazolidin-2-one] | 37
25 | O=C1OC(CN2CCOCC2)CN1Cc1cncc(-c2ccc(F)c(OC(F)F)c2)c1 (single isomer, unassigned) [Example 18, (R*)-3-[[5-[3-(Difluoromethoxy)-4-fluoro-phenyl]-3-pyridyl]methyl]-5-(morpholinomethyl)oxazolidin-2-one] | 751
26 | Cc1cc(-c2cnc(C(F)F)c(CN3CCCOC3=O)c2)ccc1F [Example 127, 3-[[2-(Difluoromethyl)-5-(4-fluoro-3-methyl-phenyl)-3-pyridyl]methyl]-1,3-oxazinan-2-one] | 276
27 | COc1ncc(-c2ccc(F)c(C(F)F)c2)cc1CN1C(=O)OC[C@H]1C [Example 121, (4R)-3-[[5-[3-(Difluoromethyl)-4-fluoro-phenyl]-2-methoxy-3-pyridyl]methyl]-4-methyl-oxazolidin-2-one] | 21
28 | CC1COC(=O)N1Cc1cncc(-c2ccc(F)c(C(F)F)c2)c1 (racemic) [Example 25, (R/S)-3-[[5-[3-(Difluoromethyl)-4-fluoro-phenyl]-3-pyridyl]methyl]-4-methyl-oxazolidin-2-one] | 31
29 | O=C1OC2(COC2)CN1Cc1cncc(-c2ccc(F)c(OC(F)F)c2)c1 [Example 13, 6-[[5-[3-(Difluoromethoxy)-4-fluoro-phenyl]-3-pyridyl]methyl]-2,8-dioxa-6-azaspiro[3.4]octan-7-one] | 39
30 | Cc1ncc(-c2ccc(C(F)F)s2)cc1CN1CCOC1=O [Example 100, 3-[[5-[5-(Difluoromethyl)-2-thienyl]-2-methyl-3-pyridyl]methyl]oxazolidin-2-one] | 42
31 | O=C1OCCCN1Cc1cc(-c2ccc(F)c(C(F)F)c2)cnc1C(F)F [Example 123, 3-[[2-(Difluoromethyl)-5-[3-(difluoromethyl)-4-fluoro-phenyl]-3-pyridyl]methyl]-1,3-oxazinan-2-one] | 63
32 | Cc1ncc(-c2cccc(C(F)(F)F)c2)cc1CN1CCCOC1=O [Example 74, 3-[[2-Methyl-5-[3-(Trifluoromethyl)phenyl]-3-pyridyl]methyl]-1,3-oxazinan-2-one] | 50
33 | CC(F)(F)c1ncc(-c2ccc(F)c(C(F)F)c2)cc1CN1CCCOC1=O [Example 136, 3-[[2-(1,1-Difluoroethyl)-5-[3-(difluoromethyl)-4-fluoro-phenyl]-3-pyridyl]methyl]-1,3-oxazinan-2-one] | 99
